Measured values from PMC5063506, “A Novel Class of Small Molecule Agonists with Preference for Human over Mouse TLR4 Activation” (PLoS ONE, 2016).

Columns and labels:
[1] = target: T1, human TLR4/MD2 (Homo sapiens, UniProt O00206+Q9Y6Y9); assay: hTLR4/MD2-HEK293 transfectant SEAP (QUANTI-Blue) dose response, AUC; assay type: cell-based; details: 1 μg/ml to 4 ng/ml, 24 h, SEAP OD 650 nm vs log concentration
T1 construct: host or cells: HEK293
Method: (§1) Cells were seeded in tissue culture treated clear flat bottom polystyrene 96 well plates (Costar, 3598) at 1e4 cells/well. Concentration-response curves were generated by addition of test compounds and incubation for 20 h at 37°C in an atmosphere of 5% CO2. LPS (E. coli 0111:B4, Ultra-pure, Invivogen) or PHAD (Avanti Polar Lipids) was used as a positive control. The SEAP released was quantified using p nitrophenyl phosphate as a substrate, and the absorbance at 405 nm was measured at 30 second intervals over several minutes using a microplate reader. Some data are recorded as the pEC50, the negative log of the EC50 value. Other data generated from these reporter cell lines were converted to AUC (area under the curve) values by interpolation of fitted cubic spline curve between OD value and log concentration levels. The calculation is performed using MESS package in statistical software R (www.r-project.org/).
(§2) Fig 4 Ugi compounds preferentially activate TLR4-HEK transfectants expressing human MD2. A-B) HEK293 cells transfected with human TLR4/MD2 or mouse TLR4/MD2 (InVivogen) were stimulated with TLR4 agonists including MPL, PHAD, and Ugi compounds at 1 μg/ml to 4 ng/ml and with LPS at 25 ng/ml to 64 pg/ml for 24 h. SNs were analyzed for SEAP content by the QUANTI-Blue assay (InVivogen) and analysis at 650 nm by spectrophotometer. AUC (area under the curve) values were calculated as in Methods. No AUC value was calculated for LPS since it was utilized with a different dose range. C) HEK transfectants with cis- or trans-species expression of TLR4, MD2, and CD14 were stimulated with Ugi compounds in a dose response range of 9 μM to 1 nM or with LPS (boxes) at 75 ng/ml to 5 pg/ml for 48 h. Data was obtained as Vmax calculated over the initial linear portion of the kinetic absorbance measurements. The AUC (area under the curve) value for the dose response curve of Vmax vs log10 (molar units) was calculated for each compound using Trapezoidal rule. TEXT PRINTED IN THE PICTURE: (A) MPL: hTLR4-HEK AUC: 0.55 | (A) AZ617: hTLR4-HEK AUC: 5.90 | (A) AZ618: hTLR4-HEK AUC: 6.56 | (A) AZ839: hTLR4-HEK AUC: 6.00 | (A) AZ161: hTLR4-HEK AUC: 5.54 | (A) AZ902: hTLR4-HEK AUC: 7.04 | (A) GLA: hTLR4-HEK AUC: 3.75 | (B) MPL: mTLR4-HEK AUC: 13.27 | (B) AZ617: mTLR4-HEK AUC: 0.89 | (B) AZ618: mTLR4-HEK AUC: 1.03 | (B) AZ839: mTLR4-HEK AUC: 0.93 | (B) AZ161: mTLR4-HEK AUC: 0.99 | (B) AZ902: mTLR4-HEK AUC: 1.55 | (B) GLA: mTLR4-HEK AUC: 14.24

[2] = target: T2, mouse TLR4/MD2 (Mus musculus, UniProt Q9JHF9+Q9QUK6); assay: mTLR4/MD2-HEK293 transfectant SEAP (QUANTI-Blue) dose response, AUC; assay type: cell-based; details: 1 μg/ml to 4 ng/ml, 24 h, SEAP OD 650 nm vs log concentration
T2 construct: host or cells: HEK293
T2 sequence (Q9QUK6 26-835): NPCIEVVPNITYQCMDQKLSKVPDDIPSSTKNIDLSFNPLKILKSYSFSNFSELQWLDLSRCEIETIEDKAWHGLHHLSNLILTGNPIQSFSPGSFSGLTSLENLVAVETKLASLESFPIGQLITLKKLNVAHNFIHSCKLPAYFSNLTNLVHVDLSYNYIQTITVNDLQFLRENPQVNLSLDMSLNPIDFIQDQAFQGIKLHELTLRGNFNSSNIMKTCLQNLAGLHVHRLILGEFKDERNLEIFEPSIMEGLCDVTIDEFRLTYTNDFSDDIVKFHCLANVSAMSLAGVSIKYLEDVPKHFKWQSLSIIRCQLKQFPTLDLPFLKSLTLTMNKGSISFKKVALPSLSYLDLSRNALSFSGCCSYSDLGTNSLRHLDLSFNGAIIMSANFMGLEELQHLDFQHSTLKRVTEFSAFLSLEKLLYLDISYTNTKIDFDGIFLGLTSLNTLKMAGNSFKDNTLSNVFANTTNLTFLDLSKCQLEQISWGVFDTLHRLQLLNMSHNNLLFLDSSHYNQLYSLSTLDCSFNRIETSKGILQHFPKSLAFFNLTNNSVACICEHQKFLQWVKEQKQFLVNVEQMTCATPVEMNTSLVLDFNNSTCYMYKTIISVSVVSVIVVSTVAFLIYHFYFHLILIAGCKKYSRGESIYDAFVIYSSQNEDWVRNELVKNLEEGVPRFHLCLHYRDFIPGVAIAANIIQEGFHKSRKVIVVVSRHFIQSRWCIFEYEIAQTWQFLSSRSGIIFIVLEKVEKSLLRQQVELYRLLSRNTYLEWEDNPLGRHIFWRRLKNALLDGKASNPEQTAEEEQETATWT
T2 sequence (Q9JHF9 19-160): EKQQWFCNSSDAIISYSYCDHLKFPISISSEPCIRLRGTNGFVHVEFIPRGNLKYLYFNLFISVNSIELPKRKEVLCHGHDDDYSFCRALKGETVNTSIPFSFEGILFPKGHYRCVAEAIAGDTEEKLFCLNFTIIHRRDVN
Method: as §1, §2

T1 sequence (O00206 24-839): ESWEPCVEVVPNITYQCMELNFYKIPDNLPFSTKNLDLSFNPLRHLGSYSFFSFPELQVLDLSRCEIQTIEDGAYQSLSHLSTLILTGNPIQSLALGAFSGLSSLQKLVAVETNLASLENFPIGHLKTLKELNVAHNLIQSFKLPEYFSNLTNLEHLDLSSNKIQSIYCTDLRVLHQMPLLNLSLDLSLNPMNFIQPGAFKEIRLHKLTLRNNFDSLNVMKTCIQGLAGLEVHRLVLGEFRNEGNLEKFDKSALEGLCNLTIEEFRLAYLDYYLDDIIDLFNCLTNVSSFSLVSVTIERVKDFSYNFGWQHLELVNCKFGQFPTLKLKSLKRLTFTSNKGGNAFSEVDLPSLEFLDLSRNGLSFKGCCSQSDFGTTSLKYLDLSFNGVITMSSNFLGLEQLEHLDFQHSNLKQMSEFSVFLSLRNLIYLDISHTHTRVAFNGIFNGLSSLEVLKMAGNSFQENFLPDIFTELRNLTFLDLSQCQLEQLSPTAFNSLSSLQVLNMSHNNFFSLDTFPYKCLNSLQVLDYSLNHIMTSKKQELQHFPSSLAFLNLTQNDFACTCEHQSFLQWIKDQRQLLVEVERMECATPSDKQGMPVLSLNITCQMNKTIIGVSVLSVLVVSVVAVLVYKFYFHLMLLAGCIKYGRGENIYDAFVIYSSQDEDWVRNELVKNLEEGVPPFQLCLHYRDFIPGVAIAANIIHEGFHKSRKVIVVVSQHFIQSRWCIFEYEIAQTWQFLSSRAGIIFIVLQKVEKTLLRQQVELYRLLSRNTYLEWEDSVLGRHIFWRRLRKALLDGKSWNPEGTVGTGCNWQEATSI
T1 sequence (Q9Y6Y9 19-160): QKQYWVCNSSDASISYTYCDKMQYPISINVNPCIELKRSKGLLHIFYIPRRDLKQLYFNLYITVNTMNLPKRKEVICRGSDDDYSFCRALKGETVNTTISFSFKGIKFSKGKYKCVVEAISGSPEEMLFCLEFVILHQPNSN

| hTLR4-HEK AUC [1] | mTLR4-HEK AUC [2] | Structure (SMILES) |
| --- | --- | --- |
| 6.56 | 1.03 | Cc1cc(C)cc(N(C(=O)c2cc(-c3ccccc3)n(-c3ccccc3)n2)C(C(=O)NC2CCCC2)c2ccc(CC(=O)O)cc2)c1 (centres unmarked) [AZ618, 2-(4-(2-(cyclopentylamino)-1-(N-(3,5-dimethylphenyl)-1,5-diphenyl-1H-pyrazole-3-carboxamido)-2-oxoethyl)phenyl)acetic acid] |
| 5.54 | 0.99 | Cc1ccc(N(C(=O)c2cc(-c3ccccc3)n(-c3ccccc3)n2)C(C(=O)NC2CCCC2)c2ccc(CC(=O)O)cc2)cc1Cl (centres unmarked) [AZ161] |
| 7.04 | 1.55 | CC(C)(C)c1ccc(N(C(=O)c2cc(-c3ccccc3)n(-c3ccccc3)n2)C(C(=O)NC2CCCC2)c2ccc(CC(=O)O)cc2)cc1 (centres unmarked) [AZ902] |
| 5.90 | 0.89 | O=C(O)Cc1ccc(C(C(=O)NC2CCCC2)N(C(=O)c2cc(-c3ccccc3)n(-c3ccccc3)n2)c2ccc3c(c2)CCC3)cc1 (centres unmarked) [AZ617] |
